Measured values taken from ChEMBL document CHEMBL5260828, “Amphiphilic glycoconjugates as potential anti-cancer chemotherapeutics” (Eur J Med Chem, 2018).
Converted amounts (≈) assume the structure as drawn.

What was measured:
T84 = experiment: Cytotoxicity against human T84 cells incubated upto 96 hrs by MTT assay; assay type: functional, cell-based; settings: T84, 96 h
HT-29 [1] = experiment: Cytotoxicity against human HT-29 cells incubated upto 96 hrs by MTT assay; assay type: functional, cell-based; settings: HT-29, 96 h
Caco-2 = experiment: Cytotoxicity against human Caco-2 cells incubated upto 96 hrs by MTT assay; assay type: functional, cell-based; settings: Caco-2, 96 h
RXF 393 = experiment: Cytotoxicity against human RXF 393 cells assessed as inhibition of cell proliferation by propidium iodide assay; assay type: functional, cell-based
[2] = Cytotoxicity against human GXF 251L cells assessed as inhibition of cell proliferation by propidium iodide assay; assay type: functional, cell-based
[3] = test system: Lung LXF 629L tumor cell line; experiment: Cytotoxicity against human Lung LXF 629L tumor cell line assessed as inhibition of cell proliferation by propidium iodide assay; assay type: functional, cell-based
HT-29 [4] = experiment: Cytotoxicity against human HT-29 cells assessed as inhibition of cell proliferation by propidium iodide assay; assay type: functional, cell-based
MCF7 = experiment: Cytotoxicity against human MCF7 cells assessed as inhibition of cell proliferation by propidium iodide assay; assay type: functional, cell-based
[5] = Cytotoxicity against human OVXF 1619L cells assessed as inhibition of cell proliferation by propidium iodide assay; assay type: functional, cell-based
LNCaP = experiment: Cytotoxicity against human LNCaP cells assessed as inhibition of cell proliferation by propidium iodide assay; assay type: functional, cell-based
PC-3M = experiment: Cytotoxicity against human PC-3M cells assessed as inhibition of cell proliferation by propidium iodide assay; assay type: functional, cell-based
[6] = Cytotoxicity against human RXF 486L cells assessed as inhibition of cell proliferation by propidium iodide assay; assay type: functional, cell-based
[7] = Cytotoxicity against human MEXF 462NL cells assessed as inhibition of cell proliferation by propidium iodide assay; assay type: functional, cell-based
OVCAR-3 = experiment: Cytotoxicity against human OVCAR-3 cells assessed as inhibition of cell proliferation by propidium iodide assay; assay type: functional, cell-based
HCT-116 [8] = experiment: Cytotoxicity against human HCT-116 cells assessed as inhibition of cell proliferation by propidium iodide assay; assay type: functional, cell-based
CWR22R = experiment: Cytotoxicity against human 22Rv1 cells assessed as inhibition of cell proliferation by propidium iodide assay; assay type: functional, cell-based
MAXF401 cell line = experiment: Cytotoxicity against human MAXF401 cells assessed as inhibition of cell proliferation by propidium iodide assay; assay type: functional, cell-based
SF-268 = experiment: Cytotoxicity against human SF-268 cells assessed as inhibition of cell proliferation by propidium iodide assay; assay type: functional, cell-based
LXFL 529 = experiment: Cytotoxicity against human LXFL 529 cells assessed as inhibition of cell proliferation by propidium iodide assay; assay type: functional, cell-based
[9] = Cytotoxicity against human OVXF 899L cells assessed as inhibition of cell proliferation by propidium iodide assay; assay type: functional, cell-based
PANC-1 = experiment: Cytotoxicity against human PANC-1 cells assessed as inhibition of cell proliferation by propidium iodide assay; assay type: functional, cell-based
NCI-H460 = experiment: Cytotoxicity against human NCI-H460 cells assessed as inhibition of cell proliferation by propidium iodide assay; assay type: functional, cell-based
RXF 944 = experiment: Cytotoxicity against human RXF 944 cells assessed as inhibition of cell proliferation by propidium iodide assay; assay type: functional, cell-based
MEXF514 = experiment: Cytotoxicity against human MEXF514 cells assessed as inhibition of cell proliferation by propidium iodide assay; assay type: functional, cell-based
T-24 = experiment: Cytotoxicity against human T24 cells assessed as inhibition of cell proliferation by propidium iodide assay; assay type: functional, cell-based
MEXF276L = experiment: Cytotoxicity against human MEXF276L cells assessed as inhibition of cell proliferation by propidium iodide assay; assay type: functional, cell-based
DU-145 = experiment: Cytotoxicity against human DU-145 cells assessed as inhibition of cell proliferation by propidium iodide assay; assay type: functional, cell-based
LXF-289 cell line = experiment: Cytotoxicity against human LXF-289 cell line assessed as inhibition of cell proliferation by propidium iodide assay; assay type: functional, cell-based
NCI-H187 = experiment: Cytotoxicity against human NCI-H187 cells incubated for 48 hrs by SRB colorimetric assay; assay type: functional, cell-based; settings: NCI-H187, 48 h
[10] = Cytotoxicity against African green monkey Vero cells incubated for 48 hrs by SRB colorimetric assay; assay type: toxicity, cell-based, Chlorocebus sabaeus
KB = experiment: Cytotoxicity against human KB cells incubated for 48 hrs by SRB colorimetric assay; assay type: functional, cell-based
BC1 cell line = experiment: Cytotoxicity against human BC1 cell line incubated for 48 hrs by SRB colorimetric assay; assay type: functional, cell-based; settings: BC1, 48 h
NCI-H23 = experiment: Growth inhibition of human NCI-H23 cells; assay type: functional
NUGC-3 = experiment: Growth inhibition of human NUGC-3 cells; assay type: functional
HCT-116 [11] = experiment: Cytotoxicity against human HCT-116 cells; assay type: functional, cell-based
HCT-116/VM46 = experiment: Cytotoxicity against human HCT-116/VM46 cells; assay type: functional, cell-based
A2780 = experiment: Cytotoxicity against human A2780 cells; assay type: functional, cell-based

Molecule `C=C(C)[C@H]1CC=C(CO)CC1` has an IC50 (T84) of 158000 nM, an IC50 (HT-29 [1]) of 100000 nM and an IC50 (Caco-2) of 78500 nM.
With `C/C=C(\C)[C@H](O[C@@H]1O[C@H](CO)[C@@H](O)[C@H](O)[C@H]1O)[C@H](C)/C=C(C)/C=C/C/C(C)=C/Cc1nc(OC)cc(O)c1C` the IC50 (RXF 393) was 2000 nM, the IC50 [2] was 2000 nM and the IC50 [3] was 2000 nM. The IC50 (HT-29 [4]) was 2000 nM, the IC50 (MCF7) was 2000 nM and the IC50 [5] was 2000 nM. It also gave an IC50 (LNCaP) of 2000 nM, an IC50 (PC-3M) of 2000 nM and an IC50 [6] of 2000 nM. It also gave an IC50 [7] of 2000 nM, an IC50 (OVCAR-3) of 2000 nM and an IC50 (HCT-116 [8]) of 2000 nM. The IC50 (CWR22R) was 2000 nM, the IC50 (MAXF401 cell line) was 2000 nM and the IC50 (SF-268) was 2000 nM. The IC50 (LXFL 529) was 2000 nM, the IC50 [9] was 2000 nM and the IC50 (PANC-1) was 2000 nM. For the same molecule, the IC50 (NCI-H460) was 2000 nM, the IC50 (RXF 944) was 2000 nM and the IC50 (MEXF514) was 2000 nM. The IC50 (T-24) was 2000 nM, the IC50 (MEXF276L) was 2000 nM and the IC50 (DU-145) was 2000 nM. It also gave an IC50 (LXF-289 cell line) of 2000 nM.
`CO[C@H]1[C@H](O)[C@@H](O)[C@H](O[C@H](C[C@@]2(C)[C@H](C)CCC(=O)[C@@H]2C)/C(C)=C/Cc2c(O)c(Cl)c(C)c(C=O)c2O)O[C@@H]1CO` gave an IC50 (NCI-H187) of 7.9 µg/mL (≈ 13.2 µM), an IC50 at 48 h [10] of 6.9 µg/mL (≈ 11.5 µM) and an IC50 (KB) of 19 µg/mL (≈ 31.7 µM). It also gave an IC50 (BC1 cell line) of 8.4 µg/mL (≈ 14 µM).
Work on `CC(C)[C@H](CCCCCCCCCCCCC(=O)NCC(=O)O)O[C@@H]1O[C@H](COC(=O)CCC(=O)O)[C@@H](O)[C@H](O)[C@H]1O` yielded a GI50 (NCI-H23) of 25.2 µg/mL (≈ 41.6 µM) and a GI50 (NUGC-3) of 17.8 µg/mL (≈ 29.4 µM).
Work on `CO[C@]12C=C[C@](C)(O1)[C@@H](OC(=O)/C=C/c1cn(C)cn1)C[C@H]1C(C)=CC[C@H](C(C)C)[C@H]1/C=C\2CO[C@@H]1OC[C@@H](O)[C@@H](O)[C@@H]1OC(C)=O` [ELEUTHEROBIN] yielded an IC50 (HCT-116 [11]) of 10 nM, an IC50 (HCT-116/VM46) of 10 nM and an IC50 (A2780) of 10 nM.
